Results: patent US9469613B2, “(N-(cyanomethyl)-4-(2-(4-morpholinophenylamino)pyrimidin-4-yl)benzamide” (Gilead Sciences, Inc., priority 2014, dated 2016)
Where a name gives a salt, the structure may show the parent alone.

Assays:
[1] = Effects of antioxidants on degradation of CYT-0387 Form II in aqueous solution (HPLC); format: physicochemical
Experimental: This was determined from the study that investigated the potential effects of different antioxidants in inhibiting or preventing degradation of CYT-0387 dihydrochloride monohydrate Form II. In the initial study, five antioxidants of three different mechanisms of action were examined: free radical scavenger antioxidants (propyl gallate, butylated hydroxyanisole (BHA), and butylated hydroxytoluene (BHT)), a sacrificial reductant (ascorbic acid), and an oxygen scavenger (sodium metabisulfite).
Aqueous solutions containing 20 μg/mL of CYT-0387 dihydrochlorid monohydrate Form II in 70% (v/v) 50 mM acetate buffer (pH 4.0) and 30% (v/v) methanol were incubated in absence (which was used as control) and presence of 0.1% (w/v) antioxidant at 60° C. for up to 7 days. At Day 0, 5 and 7, the solution was analyzed using a reverse-phase HPLC with a Zorbax SB-C8 column ([…].). […] While total degradation products could not be determined for 0.1% ascorbic acid due to interference, the main oxidative degradation products were not observed (data not shown).
In additional studies, the effects of the lower concentrations of 0.01% and 0.001% (w/v) of propyl gallate, BHA, and ascorbic acid on the stability of CYT-0387 were examined under the same condition. […] Moreover, at 0.001% (w/v) antioxidant level, the presence of propyl gallate decreased or inhibited the degradation of CYT-0387 relative to BHA and ascorbic acid (Table 7).

[2] = Relative bioavailability of CYT-0387 tablet vs capsule, food and omeprazole effect, healthy subjects; format: in vivo, human; conditions: from 100 to 800 mg
Experimental: CYT-0387 is a selective small molecule inhibitor of Janus kinase 1 and 2 (JAK1/JAK2), and is currently under investigation to treat myelofibrosis. In a Phase 1/2 study in myelofibrosis patients, 300 mg CYT-0387 capsule once daily was selected as Phase 3 dose based on a favorable benefit:risk profile. An immediate release tablet formulation (CYT-0387 tablet) was developed for further clinical evaluation. The relative bioavailability of CYT-0387 tablet vs capsule was evaluated in this study to identify Phase 3 dose of CYT-0387 tablet. CYT-0387 tablet (100 to 300 mg) vs capsule (300 mg) pharmacokinetics (PK) after a single dose was evaluated in healthy subjects. CYT-0387 tablet PK at supratherapeutic doses (400 and 800 mg), under fed and fasted conditions, and with an acid reducing agent (i.e., omeprazole) was also evaluated. Intensive PK sampling occurred up to 36 hours postdose. Safety was monitored throughout the study. A parametric analysis of variance (ANOVA) using a mixed-effects model was used to fit to the natural logarithmic transformation of PK parameters (AUC and Cmax). The 90% confidence intervals were constructed for the ratio of geometric means of CYT-0387 tablet PK at 100, 150, 200 and 300 mg vs CYT-0387 capsule 300 mg, using equivalence bounds of 70% to 143% for AUC and Cmax. A similar approach was used to assess the effect of food and omeprazole.

[3] = Mass balance/recovery, metabolite profile, pharmacokinetics and safety of radiolabeled CYT-0387; format: in vivo, human
Experimental: CYT-0387 is a selective small molecule inhibitor of Janus kinase 1 and 2 (JAK1/JAK2) currently under investigation to treat myelofibrosis. This study evaluated the mass balance/recovery, metabolite profile, pharmacokinetics, and safety of radiolabeled CYT-0387 in humans.
Six healthy individuals (subjects) received a single oral dose of 200 mg CYT-0387 containing ˜100 μCi of [^14C]-CYT-0387. Blood samples were collected up to 21 days or until plasma radioactivity in 2 consecutive samples was below detection limit or urine and feces sampling was discontinued. Urine/feces samples were collected up to 21 days or until ≧90% administered dose was recovered in feces and urine and radioactivity in 2 consecutive sampling intervals were ≦1% administered dose. Plasma concentrations of CYT-0387 and metabolites were measured using LC-MS/MS and total radioactivity assessed by liquid scintillation counting. Metabolite profiling was performed in select urine, feces, and plasma samples. Safety assessments were performed throughout the study.

[4] = target: TGFBR1 (Homo sapiens (Human), UniProt P36897); assay: Biochemical binding assay (DiscoveRx)
[5] = target: ALK2 (Acvr1) (Homo sapiens (Human), UniProt Q04771); assay: In vitro enzyme inhibition assay (LanthaScreen); format: biochemical; conditions: n = 3
Experimental: (§1) In addition, biochemical binding assays (DiscoveRx) and in vitro enzyme inhibition assays (LanthaScreen, Life Technologies) were conducted to determine the binding affinity and inhibition activities of CYT-0387 to Type-I BMPR-kinases (ALK2, ALK3, and ALK6) were conducted. Transforming growth factor beta receptor 1 (TGFBR1, ALK5) was used as a control to determine the selectivity to Type-I BMPR-kinases.

[6] = target: ALK3 (BMPR1a) (Homo sapiens (Human), UniProt P36894); assay: In vitro enzyme inhibition assay (LanthaScreen); format: biochemical; conditions: n = 3
Experimental: as §1

[7] = target: ALK6 (BMPR1B) (Homo sapiens (Human), UniProt O00238); assay: In vitro enzyme inhibition assay (LanthaScreen); format: biochemical; conditions: n = 3
Experimental: as §1

[8] = single oral dose 200 mg, healthy subjects

TGFBR1, sequence (P36897 34-503): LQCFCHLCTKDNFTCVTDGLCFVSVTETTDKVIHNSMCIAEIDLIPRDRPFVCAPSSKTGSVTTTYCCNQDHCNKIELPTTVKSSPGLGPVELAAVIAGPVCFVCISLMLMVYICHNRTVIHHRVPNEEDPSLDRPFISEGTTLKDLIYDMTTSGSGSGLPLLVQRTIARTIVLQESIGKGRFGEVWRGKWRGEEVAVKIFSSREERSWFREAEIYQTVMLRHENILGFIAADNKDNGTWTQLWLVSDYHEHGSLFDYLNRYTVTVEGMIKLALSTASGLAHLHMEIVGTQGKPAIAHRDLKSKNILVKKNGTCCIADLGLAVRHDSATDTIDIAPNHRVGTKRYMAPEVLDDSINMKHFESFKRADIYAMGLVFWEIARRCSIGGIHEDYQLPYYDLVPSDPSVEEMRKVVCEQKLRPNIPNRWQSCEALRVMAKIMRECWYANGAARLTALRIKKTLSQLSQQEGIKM
ALK2 (Acvr1), sequence (Q04771 21-509): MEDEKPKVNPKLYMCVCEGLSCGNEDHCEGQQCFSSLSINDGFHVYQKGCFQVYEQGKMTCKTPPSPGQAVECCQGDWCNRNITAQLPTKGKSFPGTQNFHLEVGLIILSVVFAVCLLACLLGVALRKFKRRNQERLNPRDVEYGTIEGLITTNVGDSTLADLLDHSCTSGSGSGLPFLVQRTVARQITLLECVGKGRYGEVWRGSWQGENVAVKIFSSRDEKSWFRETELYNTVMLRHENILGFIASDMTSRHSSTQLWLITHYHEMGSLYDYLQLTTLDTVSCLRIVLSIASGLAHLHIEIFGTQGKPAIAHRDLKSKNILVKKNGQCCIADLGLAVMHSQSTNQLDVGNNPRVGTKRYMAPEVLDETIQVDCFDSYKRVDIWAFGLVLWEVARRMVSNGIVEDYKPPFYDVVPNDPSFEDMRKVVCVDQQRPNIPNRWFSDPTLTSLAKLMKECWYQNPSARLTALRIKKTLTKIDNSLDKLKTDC
ALK3 (BMPR1a), sequence (P36894 24-532): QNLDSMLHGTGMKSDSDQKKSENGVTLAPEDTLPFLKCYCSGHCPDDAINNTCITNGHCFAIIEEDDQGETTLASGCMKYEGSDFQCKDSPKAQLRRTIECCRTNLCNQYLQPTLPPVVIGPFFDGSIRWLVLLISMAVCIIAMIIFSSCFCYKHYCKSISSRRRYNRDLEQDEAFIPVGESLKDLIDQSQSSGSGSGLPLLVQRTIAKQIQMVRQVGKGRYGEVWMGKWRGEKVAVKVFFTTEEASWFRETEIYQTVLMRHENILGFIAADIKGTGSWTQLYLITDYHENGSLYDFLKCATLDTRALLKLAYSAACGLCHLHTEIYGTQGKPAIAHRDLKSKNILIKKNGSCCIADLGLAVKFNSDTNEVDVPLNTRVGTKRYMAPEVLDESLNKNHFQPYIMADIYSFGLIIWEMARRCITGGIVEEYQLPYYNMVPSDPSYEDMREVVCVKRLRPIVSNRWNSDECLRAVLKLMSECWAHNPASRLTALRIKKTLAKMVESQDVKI
ALK6 (BMPR1B), sequence (O00238 14-502): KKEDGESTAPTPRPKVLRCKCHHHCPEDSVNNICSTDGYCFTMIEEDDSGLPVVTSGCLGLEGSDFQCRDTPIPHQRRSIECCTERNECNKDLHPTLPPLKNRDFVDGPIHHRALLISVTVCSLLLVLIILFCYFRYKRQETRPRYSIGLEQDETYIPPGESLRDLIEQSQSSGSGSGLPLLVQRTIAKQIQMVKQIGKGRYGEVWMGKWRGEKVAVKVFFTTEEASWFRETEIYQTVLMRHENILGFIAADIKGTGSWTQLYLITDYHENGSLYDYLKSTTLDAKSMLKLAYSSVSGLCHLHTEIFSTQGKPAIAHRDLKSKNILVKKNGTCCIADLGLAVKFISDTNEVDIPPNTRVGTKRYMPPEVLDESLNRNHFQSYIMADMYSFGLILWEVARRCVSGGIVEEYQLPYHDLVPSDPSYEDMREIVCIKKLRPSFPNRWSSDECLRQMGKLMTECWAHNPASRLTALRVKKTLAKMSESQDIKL

N#CCNC(=O)c1ccc(-c2ccnc(Nc3ccc(N4CCOCC4)cc3)n2)cc1 [CYT-0387 Form II, N-(cyanomethyl)-4-(2-(4-morpholinophenylamino)pyrimidin-4-yl)benzamide dihydrochloride monohydrate Form II]
main oxidative degradation products ([1]; 0.1% ascorbic acid, 60° C. (data not shown)): not observed | amount degraded ([1]; in the presence of 0.1% (w/v) propyl gallate or BHA, 60° C., up to 7 days): Less than one percent | Total Degradation ([1]; pH 4 aqueous buffer, 60° C., control, no antioxidant, day 0): 0.29% | Total Degradation ([1]; pH 4 aqueous buffer, 60° C., control, no antioxidant, day 5): 17.24% | Total Degradation ([1]; pH 4 aqueous buffer, 60° C., control, no antioxidant, day 7): 21.84% | Total Degradation ([1]; pH 4 buffer, 60° C., BHA 0.001% w/v, day 0): 0.30% | Total Degradation ([1]; pH 4 buffer, 60° C., BHA 0.001% w/v, day 5): 7.64% | Total Degradation ([1]; pH 4 buffer, 60° C., BHA 0.001% w/v, day 7): 13.76% | Total Degradation ([1]; pH 4 buffer, 60° C., BHA 0.01% w/v, day 0): 0.55% | Total Degradation ([1]; pH 4 buffer, 60° C., BHA 0.01% w/v, day 5): 1.75% | Total Degradation ([1]; pH 4 buffer, 60° C., BHA 0.01% w/v, day 7): 3.04% | Total Degradation ([1]; pH 4 buffer, 60° C., BHA 0.1% w/v, day 0): 0.45% | Total Degradation ([1]; pH 4 buffer, 60° C., BHA 0.1% w/v, day 5): 0.50% | Total Degradation ([1]; pH 4 buffer, 60° C., BHA 0.1% w/v, day 7): 1.24% | Total Degradation ([1]; pH 4 buffer, 60° C., BHT 0.1% w/v, day 0): 0.06% | Total Degradation ([1]; pH 4 buffer, 60° C., BHT 0.1% w/v, day 5): 1.71% | Total Degradation ([1]; pH 4 buffer, 60° C., BHT 0.1% w/v, day 7): 4.35% | Total Degradation ([1]; pH 4 buffer, 60° C., ascorbic acid 0.001% w/v, day 0): 0.51% | Total Degradation ([1]; pH 4 buffer, 60° C., ascorbic acid 0.001% w/v, day 5): 17.95% | Total Degradation ([1]; pH 4 buffer, 60° C., ascorbic acid 0.001% w/v, day 7): 21.28% | Total Degradation ([1]; pH 4 buffer, 60° C., ascorbic acid 0.01% w/v, day 0): 0.20% | Total Degradation ([1]; pH 4 buffer, 60° C., ascorbic acid 0.01% w/v, day 5): 1.58% | Total Degradation ([1]; pH 4 buffer, 60° C., ascorbic acid 0.01% w/v, day 7): 1.78% | Total Degradation ([1]; pH 4 buffer, 60° C., propyl gallate 0.001% w/v, day 0): 0.22% | Total Degradation ([1]; pH 4 buffer, 60° C., propyl gallate 0.001% w/v, day 5): 1.98% | Total Degradation ([1]; pH 4 buffer, 60° C., propyl gallate 0.001% w/v, day 7): 4.32% | Total Degradation ([1]; pH 4 buffer, 60° C., propyl gallate 0.01% w/v, day 0): 0.22% | Total Degradation ([1]; pH 4 buffer, 60° C., propyl gallate 0.01% w/v, day 5): 0.38% | Total Degradation ([1]; pH 4 buffer, 60° C., propyl gallate 0.01% w/v, day 7): 0.72% | Total Degradation ([1]; pH 4 buffer, 60° C., propyl gallate 0.1% w/v, day 0): 0.29% | Total Degradation ([1]; pH 4 buffer, 60° C., propyl gallate 0.1% w/v, day 5): 0.31% | Total Degradation ([1]; pH 4 buffer, 60° C., propyl gallate 0.1% w/v, day 7): 0.32% | Total Degradation ([1]; pH 4 buffer, 60° C., sodium metabisulfite 0.1% w/v, day 0): 0.33% | Total Degradation ([1]; pH 4 buffer, 60° C., sodium metabisulfite 0.1% w/v, day 5): 43.83% | Total Degradation ([1]; pH 4 buffer, 60° C., sodium metabisulfite 0.1% w/v, day 7): 46.31%

N#CCNC(=O)c1ccc(-c2ccnc(Nc3ccc(N4CCOCC4)cc3)n2)cc1 [CYT-0387, N-(cyanomethyl)-4-(2-(4-morpholinophenylamino)pyrimidin-4-yl)benzamide]
dose proportionality of plasma exposures [2]: less-than-dose-proportionally | excreted in feces ([3]; feces): 12.6 % of the dose | recovery of radioactivity in feces ([3]; feces): 69.3% | overall recovery of radioactivity ([3]; feces and urine): 96.7% | share of circulating radioactivity ([3]; plasma): 17.3% | time of maximum concentration of drug-derived radioactivity in plasma ([3]; postdose, single oral 200 mg [14C]-CYT-0387): 2.5 h | most frequently reported AEs [3, 8]: dizziness, headache, and nausea | serious or severe adverse events [3, 8]: No Grade 3 or 4 AEs, SAEs, or AEs leading to study discontinuation | tolerability [3, 8]: well tolerated | recovery of radioactivity in urine ([3]; urine): 27.5% | Kd [4]: 670 nM | IC50 [5]: 8 nM | IC50 [6]: 405 nM | IC50 [7]: 107 nM
